Data taken from ChEMBL document CHEMBL6178003, “Reducing Cardiovascular Side Effects of DMT Using Beta-Blockers” (ACS Med Chem Lett, 2025).

Key:
[1] = Half-life in human; type: ADME
[2] = Half-life in iv dosed human; type: ADME, organism-based; settings: in vivo

Structure (SMILES)	half-life [1] [min]	half-life [2] [min]
CC1(C)OC[C@@H](COC(=O)CCc2ccc(OC[C@@H](O)CNCCNC(=O)N3CCOCC3)cc2)O1 [LANDIOLOL]	~4	
COC(=O)CCc1ccc(OCC(O)CNC(C)C)cc1 (centres undefined) [ESMOLOL]		~9
CN(C)CCc1c[nH]c2ccccc12 [N,N-DIMETHYLTRYPTAMINE]	~10	
CCCC(=O)OCOC(=O)C1=C(C)NC(C)=C(C(=O)OC)C1c1cccc(Cl)c1Cl (centres undefined) [CLEVIDIPINE]	~1	
